{"source": "patent US20110263642A1", "about": "“METHODS FOR TREATMENT OF MULTIPLE SCLEROSIS” (FibroGen, Inc., priority 2008, published 2011)", "key": {"[1]": {"system": "EAE animal model of multiple sclerosis", "experiment": "EAE induced by MBP injection in Lewis rats, neurological disease scoring (first study, dosing day 3-21)", "format": "in vivo", "conditions": "for reduction in disease severity compared to vehicle-treated control EAE animals: day 3 to day 21 after MBP injection", "source_text": "Experimental allergic encephalomyelitis (EAE, also referred to as experimental autoimmune encephalomyelitis) is currently the best animal model of human multiple sclerosis (MS). In this model, induction of EAE occurs following, for example, injection of spinal cord homogenate or central nervous system (CNS) antigens, such as myelin basic protein (MBP), myelin olidgodendrocyte glycoprotein, or proteolipid protein. Approximately 10 days following injection of CNS antigens, susceptible rats (e.g., Lewis rats) develop a progressive paralysis similar to that observed in humans.\nFemale Lewis rats of approximately 220 grams were used in this study (Janvier; Le Genest St Isle, France). Compounds of the invention were formulated in water containing 10% cremophor and 60 mM L-histidine to achieve a final concentration of either 2 mg/ml or 6 mg/ml. Dexamethasone was dissolved in saline at a concentration of 0.1 mg/ml.\nInduction of EAE by injection with myelin basic protein (MBP) antigen was performed as follows. Prior to injection with the MBP antigen (day 0), rats were anaesthetized by injection of 60 mg/kg of ketamine (Imalgene500®, Rhone Mérieux, Lyon, France) plus 4 mg/kg of xylazine (Rompum 2%, Bayer Pharma, Kiel, Germany). Rats were then injected in the hind footpad with a total volume of 100 μl of MBP inoculum solution per paw containing 100 μg of MBP antigen (Sigma, L'Isle d'Abeau Chesnes, France) emulsified (1:1) containing incomplete Freund's adjuvant (IFA) (Sigma, L'Isle d'Abeau Chesnes, France) and 500 μg of heat-inactivated mycobacterium tuberculosis (strain H 37 RA from Difco). Control rats were similarly injected with an equivalent volume of inoculum without MBP. […]\nNeurological scoring was performed daily from day 7 to day 21 following BP injection. […] Analysis of variance (ANOVA) was performed on data from the measured (clinical score) or the calculated (severity score) parameters. […]\n(§1) Cumulative EAE disease score, used as a measure of overall disease severity, was determined by adding all disease/neurological scores for each animal over the time course of the experiment."}, "[2]": {"system": "Oligodendrocytes (MO3.13 cells)", "experiment": "Ceramide-induced cell death of oligodendrocytes, Calcein AM viability", "format": "cell-based", "conditions": "for viability at 20 µM: ceramide 2.25 μM, compound 20 μM, non-ceramide control = 100", "source_text": "(See e.g., Craighead et al. (2000) Neurosci Lett. 278:125-8; Jana et al. (2007) J Neuroimmune Pharmacol. 2:184-93; Jana et al. (2009) J Neurol Sci. 278:5-15; Singh et al. (1998) J Biol. Chem. 273:20354-62.) In this model, addition of ceramide to cultured oligodendrocytes results in oxidative stress-induced cell death (i.e. apoptosis). The effect of compounds and methods of the present invention on the ability to improve oligodendrocyte viability following ceramide challenge was examined as follows. Oligodendrocytes (MO3.13 cells; Cedarlane Laboratories, Burlington, N.C.) were plated in 96-well culture dishes at a density of 4000 cells per well and cultured at 37° C., 10% CO2 in DMEM containing L-glutamine, sodium pyruvate, and 25 mM glucose (Mediatech Inc., Manassas, Va.) and supplemented with 10% FBS (Invitrogen Corporation, Carlsbad, Calif.). The next day, the plating media was removed and replaced with DMEM containing L-glutamine (Invitrogen Corporation, Carlsbad, Calif.) and supplemented with 5.5 mM glucose. Cells were then treated with vehicle (0.015% DMSO) or ceramide (Sigma-Aldrich, St. Louis, Mo.) plus vehicle (0.05% DMSO) or a compound of the invention (20 μM).\nFor cells treated longer than 3 days, half the media was removed after the third day of treatment and replaced with an equal volume of fresh treatment media containing vehicle (0.015% DMSO) or ceramide plus vehicle (0.05% DMSO) or a compound of the invention.\nCell viability was assessed 3, 4, and 5 days after treatment using the following protocol. Treatment media was removed from the cells and 100 ul of 1.67 uM Calcein AM reagent (Invitrogen Corporation, Carlsbad, Calif.) prepared in DMEM containing L-glutamine (Invitrogen Corporation, Carlsbad, Calif.) and supplemented with 5.5 mM glucose was added to each well. Cells were returned to 37° C. in a 10% CO2 incubator for approximately 30 minutes before assessing fluorescence (Ex 485 nm/Em 538 nm) using a microplate reader (Molecular Devices, Sunnyvale, Calif.). Images were taken of representative wells using a fluorescent microscope equipped with a camera (Nikon, Melville, N.Y.) and imaging software (Nikon, Melville, N.Y.)."}, "[3]": {"system": "EAE animal model of multiple sclerosis", "experiment": "EAE induced by MBP injection in Lewis rats, prophylactic versus treatment dosing (second series)", "format": "in vivo", "protocol": "In another series of experiments, the effectiveness of compounds and methods of the present invention on treating established multiple sclerosis in an EAE model was examined as follows. EAE was induced in female Lewis rats (200-220 g) as described above. Compound of the invention (30 mg/kg) or vehicle control was administered p.o. daily from day 3 to day 21 following MBP injection (prophylactic group) or from the day first symptoms appeared to day 21 (treatment group). Dexamethasone (1 mg/kg) was administered subcutaneously at 1 mg/kg from day 8 to day 12 following MBP injection.\nNeurological scoring was performed daily from day 7 to day 21 following […]. Grading of disease severity (i.e., disease score) was based on the following observations performed by two different observers: 0=no abnormality; 1=distal weakness of the tail; 2=complete weakness of the tail; 3=mild weakness in one or two hindlimbs; 4=moderate paraparesia of one or two hindlimbs; 5=total paraplegia. Analysis of variance (ANOVA) was performed on data from the measured (clinical score) or the calculated (severity score) parameters. Fisher's Protected Least Significant Difference was used for pairwise comparisons. p value≦0.05 were considered significant.\nas §1"}}, "note": "Like-named read-outs stand apart in the source and are kept apart here.", "data": [{"smiles": "N#Cc1nc(C(=O)NCC(=O)O)c(O)c2c(Oc3ccccc3)cccc12", "note": "[Compound A, [(1-Cyano-4-hydroxy-5-phenoxy-isoquinoline-3-carbonyl)-amino]-acetic acid]", "values": [{"measurement": "reduction in disease severity compared to vehicle-treated control EAE animals", "setting": "[1]; 10 mg/kg p.o. daily", "value": 17, "unit": "%"}, {"measurement": "reduction in disease severity compared to vehicle-treated control EAE animals", "setting": "[1]; 30 mg/kg p.o. daily, p<0.05", "value": 46, "unit": "%"}, {"measurement": "cumulative disease score (AUC)", "setting": "[1]; either 10 mg/kg or 30 mg/kg p.o. daily, day 3-21, FIG. 2", "value": "reduced"}, {"measurement": "viability at 20 µM", "setting": "[2]; 72 h, read-out: % Viable at Day 3", "value": 82, "unit": "%"}, {"measurement": "viability at 20 µM", "setting": "[2]; 96 h, read-out: % Viable at Day 4", "value": 46, "unit": "%"}, {"measurement": "viability at 20 µM", "setting": "[2]; 120 h, read-out: % Viable at Day 5", "value": 33, "unit": "%"}, {"measurement": "increase in viability compared to vehicle treated oligodendrocytes", "setting": "[2]; ceramide-challenged, day 5", "value": 3, "unit": "fold"}, {"measurement": "cumulative disease score (AUC)", "setting": "[3]; 30 mg/kg p.o., both prophylactic group and treatment group, FIGS. 4A and 4B", "value": "reduced"}, {"measurement": "reduction in disease severity compared to vehicle-treated control EAE animals", "setting": "[3]; prophylactic group: 30 mg/kg p.o. daily, day 3 to day 21", "value": 31, "unit": "%"}, {"measurement": "reduction in disease severity compared to vehicle-treated control EAE animals", "setting": "[3]; treatment group: 30 mg/kg p.o. daily, first symptom to day 21, p<0.05", "value": 19, "unit": "%"}]}]}
